In US20250204530A1, “USE OF CAROTENIOD COMPOSITION FOR NEMATODE CONTROL” (IDAI NATURE, S.L., priority 2022, published 2025):

Tested on: Phytopathogenic nematodes (Helicotylenchus and Hemicycliophora)
Assay: NEPOT test in soil pots: full formulation, co-formulants, lutein alone (Example 14)
Assay type: in vivo
Settings: 20 mL/pot, 7 DAA; for number of nematodes in soil (living individuals, Baermann): 320 individuals per pot
Description: The purpose of this test was to evaluate the efficacy of the products coded as P1, P2 and P3 of the company IDAI NATURE against a mixture of phytopathogenic nematodes by the company NEVAL.
This study evaluates the behaviour under controlled conditions, in soil (NEPOT test)* of a battery of products against a mixture of phytopathogenic nematodes.
This study consists of 3 compositions, each of them at 2 doses and a control without treatment.
The juveniles were obtained from a freshly extracted sample of roots of sports lawns.
It is based on pots or glasses with the right amount of 100 mL for a quantification per sample.
• Product 1: N-09-04—Full formulation • Product 2: Co-formulant package (without A.I.)—(sunflower oil+tensioactives polysorbates 20, 80 and 85+butyl glycol+TBHQ+water) • Product 3: The Active ingredient alone—Lutein
The trial was carried out laboratory in Xilxes—Castelon—Spain—under controlled conditions and plant pathogenic nematodes in soil in a volume of 100 mL per pot. The three replicates per treatment were worked in 100 mL pots of soil with 320 plant pathogenic nematodes in each pot. • Pest: Phytopathogenic nematodes (Helicotylenchus and Hemicycliophora) • Innoculum quantity: 320 individuals per experimental unit • Substract: Sandy soil • Application: Manual—20 mL/pot • Design: Randomized Complete Block (RCB)—3 replicates per treatment • Equipment: Manual application: with micropipette and MAT 09.1 balance • Application code: A=28/06/2021—preparation+application A • Extraction=05/07/2021 (7 DAA according Baermann) • Quantification=06/07/2021
Products 1 (N-09-04 full formulation) and product 2 (the full formulation without the Lutein) were mixed with water, while product 3 (Lutein alone—active ingredient), difficult miscibility was deposited on the ground, adding the water later and mixing everything in the soil with a teaspoon shaking for 30 seconds each replica.
After the study carried out under laboratory conditions, each of the soil samples was extracted using the Baermann funnel procedure for 24 hours and then quantified under a biological microscope.
The Baermann procedure has the particular option of extracting only those individuals that have mobility, that is, that are alive, so the result is extrapolated to living individuals.

What does the source list for CC1=C[C@H](O)CC(C)(C)[C@H]1/C=C/C(C)=C/C=C/C(C)=C/C=C/C=C(C)/C=C/C=C(C)/C=C/C1=C(C)C[C@@H](O)CC1(C)C [Product 3, Lutein]?
efficacy / control (in brackets) (0.375 mL/L): 78.4%; number of nematodes in soil (living individuals, Baermann) (0.375 mL/L): 68.0; efficacy / control (in brackets) (0.563 ml/L): 77.5%; number of nematodes in soil (living individuals, Baermann) (0.563 ml/L): 71.0; efficacy / control (in brackets) (5 ml/L): 4.2%; efficacy / control (in brackets) (7.5 ml/L): 40.8%
